# Measurements published in ChEMBL document CHEMBL4004875, “Synthesis of bulky-tailed sulfonamides incorporating pyrido[2,3-d][1,2,4]triazolo[4,3-a]pyrimidin-1(5H)-yl) moieties and evaluation of their carbonic anhydrases I, II, IV and IX inhibitory effects” (Bioorg Med Chem, 2017).
# The source made the active and inactive calls. The rule behind the calls is not given here.
# Legend:
# Carbonic anhydrase 1 [1] = target: T1, Carbonic anhydrase 1 (Homo sapiens, UniProt P00915); assay: Inhibition of recombinant human cytosolic carbonic anhydrase 1 assessed as inhibition of CO2 hydration up to 100 uM preincubated for 15 mins prior to testing by phenol red based stopped-flow CO2 hydration assay
# Target sequence in this assay (P00915 2-261 limits assumed): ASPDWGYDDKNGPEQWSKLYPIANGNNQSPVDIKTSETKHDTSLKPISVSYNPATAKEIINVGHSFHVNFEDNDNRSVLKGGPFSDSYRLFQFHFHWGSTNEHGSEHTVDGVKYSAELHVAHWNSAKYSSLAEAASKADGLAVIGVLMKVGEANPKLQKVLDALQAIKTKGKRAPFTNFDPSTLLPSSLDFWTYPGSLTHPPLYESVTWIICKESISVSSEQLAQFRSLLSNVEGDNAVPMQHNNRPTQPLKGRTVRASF
# Carbonic anhydrase 9 = Carbonic anhydrase 9 (Homo sapiens, UniProt Q16790)
# Description: Inhibition of recombinant human tumor-associated carbonic anhydrase 9 assessed as inhibition of CO2 hydration preincubated for 15 mins prior to testing by phenol red based stopped-flow CO2 hydration assay
# Carbonic anhydrase 1 [2] = target: T1, Carbonic anhydrase 1; assay: Inhibition of recombinant human cytosolic carbonic anhydrase 1 assessed as inhibition of CO2 hydration preincubated for 15 mins prior to testing by phenol red based stopped-flow CO2 hydration assay
# Target sequence in this assay (P00915 whole entry): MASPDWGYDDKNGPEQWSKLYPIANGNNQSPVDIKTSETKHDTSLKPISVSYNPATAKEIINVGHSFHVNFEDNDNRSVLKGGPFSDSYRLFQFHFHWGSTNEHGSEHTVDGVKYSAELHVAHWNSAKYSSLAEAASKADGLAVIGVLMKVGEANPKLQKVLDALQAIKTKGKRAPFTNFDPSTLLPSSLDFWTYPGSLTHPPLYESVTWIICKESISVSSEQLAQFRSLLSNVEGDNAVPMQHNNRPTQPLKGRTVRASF
# Carbonic anhydrase 2 = Carbonic anhydrase 2 (Homo sapiens, UniProt P00918); assay: Inhibition of recombinant human carbonic anhydrase 2 assessed as inhibition of CO2 hydration preincubated for 15 mins prior to testing by phenol red based stopped-flow CO2 hydration assay
# Carbonic anhydrase 4 [3] = target: T2, Carbonic anhydrase 4 (Homo sapiens, UniProt P22748); assay: Inhibition of recombinant human membrane-associated carbonic anhydrase 4 assessed as inhibition of CO2 hydration preincubated for 15 mins prior to testing by phenol red based stopped-flow CO2 hydration assay
# T2 sequence (P22748 whole entry): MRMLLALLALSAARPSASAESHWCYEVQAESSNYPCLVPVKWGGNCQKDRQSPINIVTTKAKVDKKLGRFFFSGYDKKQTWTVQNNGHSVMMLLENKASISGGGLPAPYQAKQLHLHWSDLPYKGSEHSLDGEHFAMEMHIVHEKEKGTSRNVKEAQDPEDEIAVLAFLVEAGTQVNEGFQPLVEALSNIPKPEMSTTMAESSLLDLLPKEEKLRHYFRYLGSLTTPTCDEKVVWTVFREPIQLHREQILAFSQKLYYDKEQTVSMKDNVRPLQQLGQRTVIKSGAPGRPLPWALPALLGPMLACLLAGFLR
# Carbonic anhydrase 4 [4] = target: T2, Carbonic anhydrase 4; assay: Inhibition of recombinant human membrane-associated carbonic anhydrase 4 assessed as inhibition of CO2 hydration up to 100 uM preincubated for 15 mins prior to testing by phenol red based stopped-flow CO2 hydration assay
Compound,Ki (Carbonic anhydrase 9) [nM],further results
CC(=O)c1nn(-c2ccc(S(N)(=O)=O)cc2)c2nc3nc(-c4cccs4)cc(-c4ccc(F)cc4)c3c(=O)n12,190,
CC(=O)c1nn(-c2ccc(S(N)(=O)=O)cc2)c2nc3nc(-c4ccc(Cl)cc4)cc(-c4ccc([N+](=O)[O-])cc4)c3c(=O)n12,330,
CCOC(=O)c1nn(-c2ccc(S(N)(=O)=O)cc2)c2nc3nc(-c4cccs4)cc(-c4ccc([N+](=O)[O-])cc4)c3c(=O)n12,1100,
CCOC(=O)c1nn(-c2ccc(S(N)(=O)=O)cc2)c2nc3nc(-c4cccs4)cc(-c4ccc(Cl)cc4)c3c(=O)n12,390,
CCOC(=O)c1nn(-c2ccc(S(N)(=O)=O)cc2)c2nc3nc(-c4cccs4)cc(-c4ccccc4)c3c(=O)n12,1900,inhibition (Carbonic anhydrase 4 [4]): inactive
CCOC(=O)c1nn(-c2ccc(S(N)(=O)=O)cc2)c2nc3nc(-c4ccc(Cl)cc4)cc(-c4ccccc4)c3c(=O)n12,3260,inhibition (Carbonic anhydrase 1 [1]): inactive
CCOC(=O)c1nn(-c2ccc(S(N)(=O)=O)cc2)c2nc3nc(-c4ccc(Cl)cc4)cc(-c4ccc(OC)cc4)c3c(=O)n12,1450,inhibition (Carbonic anhydrase 4 [4]): inactive
Cc1ccc(-c2cc(C(F)(F)F)nn2-c2ccc(S(N)(=O)=O)cc2)cc1 [CELECOXIB],20,Ki (Carbonic anhydrase 4 [3]): 290 nM
CCOC(=O)c1nn(-c2ccc(S(N)(=O)=O)cc2)c2nc3nc(-c4ccc(Cl)cc4)cc(-c4ccc(Cl)cc4)c3c(=O)n12,1460,
CC(=O)c1nn(-c2ccc(S(N)(=O)=O)cc2)c2nc3nc(-c4cccs4)cc(-c4ccc([N+](=O)[O-])cc4)c3c(=O)n12,160,
CCOC(=O)c1nn(-c2ccc(S(N)(=O)=O)cc2)c2nc3nc(-c4cccs4)cc(-c4ccc(OC)cc4)c3c(=O)n12,380,
COc1ccc(-c2cc(-c3ccc(Cl)cc3)nc3nc4n(-c5ccc(S(N)(=O)=O)cc5)nc(C(C)=O)n4c(=O)c23)cc1,330,

# More lines, main results first:
Ki (Carbonic anhydrase 9) [nM],Compound,further results
990,CC(=O)c1nn(-c2ccc(S(N)(=O)=O)cc2)c2nc3nc(-c4cccs4)cc(-c4ccc(Cl)cc4)c3c(=O)n12,inhibition (Carbonic anhydrase 1 [1]): inactive
350,CC(=O)c1nn(-c2ccc(S(N)(=O)=O)cc2)c2nc3nc(-c4ccc(Cl)cc4)cc(-c4ccc(Cl)cc4)c3c(=O)n12,
1120,CC(=O)c1nn(-c2ccc(S(N)(=O)=O)cc2)c2nc3nc(-c4cccs4)cc(-c4ccccc4)c3c(=O)n12,Ki (Carbonic anhydrase 1 [2]): 6780 nM; Ki (Carbonic anhydrase 2): 730 nM; Ki (Carbonic anhydrase 4 [3]): 4790 nM
3240,CCOC(=O)c1nn(-c2ccc(S(N)(=O)=O)cc2)c2nc3nc(-c4ccc(Cl)cc4)cc(-c4ccc(F)cc4)c3c(=O)n12,
420,COc1ccc(-c2cc(-c3cccs3)nc3nc4n(-c5ccc(S(N)(=O)=O)cc5)nc(C(C)=O)n4c(=O)c23)cc1,
180,CC(=O)c1nn(-c2ccc(S(N)(=O)=O)cc2)c2nc3nc(-c4ccc(Cl)cc4)cc(-c4ccccc4)c3c(=O)n12,
1620,CCOC(=O)c1nn(-c2ccc(S(N)(=O)=O)cc2)c2nc3nc(-c4cccs4)cc(-c4ccc(F)cc4)c3c(=O)n12,inhibition (Carbonic anhydrase 1 [1]): inactive
2460,CCOC(=O)c1nn(-c2ccc(S(N)(=O)=O)cc2)c2nc3nc(-c4ccc(Cl)cc4)cc(-c4ccc([N+](=O)[O-])cc4)c3c(=O)n12,
250,CC(=O)c1nn(-c2ccc(S(N)(=O)=O)cc2)c2nc3nc(-c4ccc(Cl)cc4)cc(-c4ccc(F)cc4)c3c(=O)n12,
